# Results taken from ChEMBL document CHEMBL4613284, “A Class of Potent Inhibitors of the HIV-1 Nucleocapsid Protein Based on Aminopyrrolic Scaffolds” (ACS Med Chem Lett, 2020).
# The source made the active and inactive calls. The calls are words filed in the database; no cut-off is given here.
# Columns and labels:
# cTAR DNA [1] = assay: Binding affinity to HIV1 nucleocapsid protein (11 to 55 residues)-targeted Rh6G-5'-cTAR DNA-3'-Dabcyl assessed as inhibition of NC-induced viral Rh6G-5'-cTAR DNA-3'-Dabcyl destabilization by measuring fluorescence intensity up to 60 mins by fluorescence assay; format: nucleic-acid assay, Human immunodeficiency virus 1
# [2] = system: Human immunodeficiency virus 1; assay: Antiviral activity against HIV1 pNL4.3deltaenvLuc-ADA 8 pseudotyped virus infected in human U373-CD4-CCR5 cells assessed as reduction in viral infection measured after 48 hrs by luciferase assay; format: functional, organism-based; conditions: Human immunodeficiency virus 1, 48 h
# PBS RNA [3] = assay: Binding affinity to HIV1 propidium iodide-labeled double stranded (-)/(+)-PBS sequence by fluorescence anisotropy assay; format: nucleic-acid assay; conditions: Human immunodeficiency virus 1
# [4] = system: Human immunodeficiency virus 1; assay: Binding affinity to HIV1 nucleocapsid protein (11 to 55 residues) assessed as increase in fluorescence intensity of Trp37 residue at 100 uM by fluorescence anisotropy assay
# cTAR DNA [5] = assay: Binding affinity to HIV1 propidium iodide-labeled-5'-cTAR DNA at cTAR to compound complex stoichiometry ratio of 1:3 using 30 mM NaCl by fluorescence anisotropy assay; format: nucleic-acid assay; conditions: Human immunodeficiency virus 1
# [6] = system: Human immunodeficiency virus 1; assay: Antiviral activity against HIV1 3B infected in human MT4 cells assessed as protection against virus-induced cytopathic effect incubated for 5 days by MTT assay; format: functional, organism-based; conditions: Human immunodeficiency virus 1, 3B, MT4, 120 h
# cTAR DNA [7] = assay: Inhibition of annealing of HIV1 Rh6G5'-cTAR DNA-3'-Dabcyl/unlabeled dTAR at 4 uM after 25 hrs by spectrofluorimetry analysis; format: nucleic-acid assay; conditions: Human immunodeficiency virus 1
# cTAR DNA [8] = assay: Binding affinity to HIV1 nucleocapsid protein (11 to 55 residues)-targeted Rh6G-5'-cTAR DNA-3'-Dabcyl/dTAR assessed as inhibition of NC-promoted annealing of Rh6G-5'-cTAR DNA-3'-Dabcyl/unlabeled dTAR at 4 uM after 25 hrs by spectrofluorimetry analysis relative to control; format: nucleic-acid assay; conditions: Human immunodeficiency virus 1
# [9] = Solubility of compound in water; format: physicochemical; conditions: buffer
# cTAR DNA [10] = assay: Binding affinity to HIV1 fluorescein-labeled-5'-cTAR DNA at cTAR to compound complex stoichiometry ratio of 1:3 using 30 mM NaCl by fluorescence anisotropy assay; format: nucleic-acid assay, Human immunodeficiency virus 1
# [11] = system: Human immunodeficiency virus 1; assay: Binding affinity to HIV1 nucleocapsid protein (11 to 55 residues) assessed as change in fluorescence intensity of Trp37 residue up to 10 uM by fluorescence anisotropy assay
# cTAR DNA [12] = assay: Binding affinity to HIV1 nucleocapsid protein (11 to 55 residues)-targeted Rh6G-5'-cTAR DNA-3'-Dabcyl/dTAR assessed as inhibition of NC-promoted annealing of Rh6G-5'-cTAR DNA-3'-Dabcyl/unlabeled dTAR at 0.4 uM by spectrofluorimetry analysis; format: nucleic-acid assay; conditions: Human immunodeficiency virus 1
# ssDNA [13] = assay: Competitive binding affinity to HIV1 S3G5 oligonucleotide assessed as apparent equilibrium dissociation constant of NC(11 to 55 residues) to S3G5 oligonucleotide at 20 uM and 20 degreeC by isothermal titration calorimetry (reference value: 0.15 +/- 0.1 microM); format: nucleic-acid assay; conditions: Human immunodeficiency virus 1
# [14] = system: Human immunodeficiency virus 1; assay: Binding affinity to HIV1 nucleocapsid protein (11 to 55 residues) assessed as change in fluorescence intensity of Trp37 residue up to 100 uM by fluorescence based analysis
# ssDNA [15] = assay: Competitive binding affinity to HIV1 S3G5 oligonucleotide assessed as equilibrium dissociation constant by isothermal titration calorimetry; format: nucleic-acid assay, Human immunodeficiency virus 1
# cTAR DNA [16] = assay: Binding affinity to HIV1 fluorescein-labeled-5'-cTAR DNA at cTAR to compound complex stoichiometry ratio of 1:3 using 80 mM NaCl by fluorescence anisotropy assay; format: nucleic-acid assay, Human immunodeficiency virus 1
# cTAR DNA [17] = assay: Binding affinity to HIV1 fluorescein-labeled-5'-cTAR DNA at cTAR to compound complex stoichiometry ratio of 1:3 using 150 mM NaCl by fluorescence anisotropy assay; format: nucleic-acid assay; conditions: Human immunodeficiency virus 1
# [18] = Cytotoxicity against human U373 cells expressing CD4-CCR5 assessed as reduction in cell viability incubated for 48 hrs by luciferase assay; format: cell-based, U-373MG ATCC; conditions: U373 MG
# ssDNA [19] = assay: Binding affinity to HIV1 single stranded fluorescein-labeled-5'-S3G5 oligonucleotide at 5'-S3G5 oligonucleotide to compound stoichiometry ratio of 1:3 by fluorescence anisotropy assay; format: nucleic-acid assay; conditions: Human immunodeficiency virus 1
# PBS RNA [20] = assay: Binding affinity to HIV1 nucleocapsid protein (11 to 55 residues)-targeted Rh6G-5'-(+)-PBS-3'-Dabcyl/(-)-PBS assessed as inhibition of NC-promoted annealing of +/- PBS sequence at 4 uM by spectrofluorimetry analysis relative to control; format: nucleic-acid assay; conditions: Human immunodeficiency virus 1
# PBS RNA [21] = assay: Inhibition of annealing of HIV1 Rh6G-5'-(+)-PBS-3'-Dabcyl/(-)-PBS at 4 uM by spectrofluorimetry analysis relative to control; format: nucleic-acid assay; conditions: Human immunodeficiency virus 1
# [22] = Therapeutic index, ratio of CC50 for human U373 cells expressing CD4-CCR5 to IC50 for HIV1 pNL4.3deltaenvLuc-ADA 8 pseudotyped virus infected in human U373-CD4-CCR5 cells; format: toxicity, cell-based; conditions: read-out: Ratio CC50/IC50
# [23] = Cytotoxicity against human MT4 cells assessed as reduction in cell viability incubated for 5 days by MTT assay; format: cell-based
# ssDNA [24] = assay: Competitive binding affinity to HIV1 S3G5 oligonucleotide at 20 degreeC by isothermal titration calorimetry; format: nucleic-acid assay; conditions: Human immunodeficiency virus 1
# ssDNA [25] = assay: Competitive binding affinity to HIV1 S3G5 oligonucleotide assessed as apparent equilibrium dissociation constant of NC(11 to 55 residues) to S3G5 oligonucleotide at 5 uM and 20 degreeC by isothermal titration calorimetry (reference value: 0.15 +/ 0.1 microM); format: nucleic-acid assay; conditions: Human immunodeficiency virus 1
compound,measurement,setting,value
CCc1c(CN[C@@H]2CCCC[C@H]2N)c(CC)c2c(CC)c1CN[C@@H]1CCCC[C@H]1NCc1ccc([nH]1)CN[C@@H]1CCCC[C@H]1NC2,IC50,cTAR DNA [1],60 µM
c1c[nH]c(CNCc2ccc(CNCc3ccc[nH]3)c3c(CNCc4ccc[nH]4)ccc(CNCc4ccc[nH]4)c23)c1,IC50,cTAR DNA [1],10 µM
CCc1c(CN)c(CC)c2c(CC)c1CNCc1ccc([nH]1)CNCc1c(CC)c(CN)c(CC)c(c1CC)CNCc1ccc([nH]1)CNC2,IC50,cTAR DNA [1],4.9 µM
c1c[nH]c(CNCc2cc(CNCc3ccc[nH]3)c(CNCc3ccc[nH]3)c(CNCc3ccc[nH]3)c2)c1,IC50,cTAR DNA [1],130 µM
c1c[nH]c(CNCc2c(CNCc3ccc[nH]3)c(CNCc3ccc[nH]3)c(CNCc3ccc[nH]3)c(CNCc3ccc[nH]3)c2CNCc2ccc[nH]2)c1,IC50,cTAR DNA [1],52 µM
CCc1c(CNCCNCc2ccc[nH]2)c(CC)c(CNCCNCc2ccc[nH]2)c(CC)c1CNCCNCc1ccc[nH]1,IC50,cTAR DNA [1],58 µM
CCc1c(CN)c(CC)c2c(CC)c1CNCc1ccc([nH]1)CNCc1c(CC)c(CNCc3ccc[nH]3)c(CC)c(c1CC)CNCc1ccc([nH]1)CNC2,IC50,[2],1.8 µM
same,Activity,PBS RNA [3],inactive
same,Activity,[4],Active
same,Activity,cTAR DNA [5],Active
same,IC50,[6],13.5 µM
same,inhibition,cTAR DNA [7],Active
same,inhibition,cTAR DNA [8],100%
same,solubility,[9],Soluble
same,IC50,cTAR DNA [1],4.4 µM
same,Kd,cTAR DNA [10],0.23 µM
same,Activity,[11],inactive
same,Activity,cTAR DNA [12],Active
same,Kapp,ssDNA [13],12 µM
same,Activity,[14],inactive
same,Kd,ssDNA [15],0.26 µM
same,Kd,cTAR DNA [16],2 µM
same,Activity,cTAR DNA [17],inactive
same,IC50,[18],15 µM
same,K,ssDNA [19],0.6 µM
same,inhibition,PBS RNA [20],100%
same,inhibition,PBS RNA [21],100%
same,selectivity ratio,[22],8
same,CC50 at 120 h,[23],24 µM
same,Activity,ssDNA [24],Dose-dependent effect
same,Kapp,ssDNA [25],1.5 µM
CCc1c(CNCc2ccc[nH]2)c(CC)c2c(CC)c1CNCc1ccc([nH]1)CNCc1c(CC)c(CNCc3ccc[nH]3)c(CC)c(c1CC)CNCc1ccc([nH]1)CNC2,IC50,cTAR DNA [1],17 µM
CCc1c(CNCc2ccc[nH]2)c(CC)c(CNCc2ccc[nH]2)c(CC)c1CNCc1ccc[nH]1,IC50,cTAR DNA [1],150 µM
CCc1c(CN[C@H]2CCCC[C@@H]2NCc2ccc[nH]2)c(CC)c(CN[C@H]2CCCC[C@@H]2NCc2ccc[nH]2)c(CC)c1CN[C@H]1CCCC[C@@H]1NCc1ccc[nH]1,IC50,cTAR DNA [1],93 µM
CCc1c2c(CC)c(CN[C@H]3CCCC[C@@H]3N)c(CC)c1CN[C@H]1CCCC[C@@H]1NCc1ccc([nH]1)CN[C@H]1CCCC[C@@H]1NC2,IC50,cTAR DNA [1],63 µM
CCc1c(CN[C@@H]2CCCC[C@H]2NCc2ccc[nH]2)c(CC)c(CN[C@@H]2CCCC[C@H]2NCc2ccc[nH]2)c(CC)c1CN[C@@H]1CCCC[C@H]1NCc1ccc[nH]1,IC50,cTAR DNA [1],96 µM
